Source: patent US8192962B2, “Processes for detecting toxic substances” (Daikin Industries, Ltd., priority 2001, dated 2012)

Tested on: Mitochondria-located protein genes
Assay: DNA chip mRNA expression in yeast, mitochondria-located protein genes (Table 2)
Assay type: cell-based, Saccharomyces cerevisiae S288C
Details: cells incubated two hours with the chemical substance
In short: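 Chemical exposure: 2 h, log-phase S. cerevisiae S288C, YPD, 25° C., dose set to inhibit growth without death. Profiling: mRNA labeled by reverse transcription with Cy3- or Cy5-dUTP, hybridized to whole-genome array. Output: fluorescence ratio against untreated culture.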

Measured: The level of expressed mRNA in the presence of chemical substance/The level of expressed mRNA in the absence of chemical substance

COc1cc(CNC(=O)CCCCC=CC(C)C)ccc1O [(12), 8-methyl-N-vanillyl-6-nonenamide]
1.1: yeast gene YNL104C | yeast gene YOR316C | yeast gene YPL135W | yeast gene YPL262W
0.5: yeast gene YLR295C | yeast gene YMR035W
1.7: yeast gene YNL055C
0.6: yeast gene YKL194C | yeast gene YLR038C | yeast gene YLR395C | yeast gene YNL256W
0.8: yeast gene YJR121W | yeast gene YKL141W | yeast gene YKL148C | yeast gene YKL170W | yeast gene YLL041C | yeast gene YML129C | yeast gene YMR089C | yeast gene YMR267W | yeast gene YOR020C | yeast gene YOR100C | yeast gene YOR142W | yeast gene YOR150W | yeast gene YOR187W | yeast gene YPL134C | yeast gene YPR024W
1.2: yeast gene YOL096C | yeast gene YOR037W
1.9: yeast gene YKL142W
1.3: yeast gene YMR152W | yeast gene YNL071W | yeast gene YOR176W
1.8: yeast gene YML054C
0.7: yeast gene YKL003C | yeast gene YLR259C | yeast gene YMR023C | yeast gene YMR083W | yeast gene YMR203W | yeast gene YNL073W | yeast gene YPL215W
0.9: yeast gene YKR066C | yeast gene YLR348C | yeast gene YML120C | yeast gene YOR130C | yeast gene YPL040C | yeast gene YPR037C | yeast gene YPR047W | yeast gene YPR134W
1.0: yeast gene YKL016C | yeast gene YLR304C
